In article PMC4286194 (Biochemical Journal, 2015):

Tests used:
Type in all cases: cell-based, mouse
[1] = tested on: Bone-marrow-derived macrophages; test: IL-10 secretion (BIOPLEX) in LPS-stimulated macrophages; conditions: 10 μM; LPS-stimulated
Method: The concentration of TNFα, IL-6, IL-10 and IL-12p40 in cell-free culture supernatants were measured using the Bio-Plex Pro Assay system (Bio-Rad).

[2] = tested on: Bone-marrow-derived macrophages; test: TLR signalling immunoblots (MAPKs, MSK1/2, CREB, IKKs, TBK1); conditions: 3 μM bosutinib, 0.3 μM dasatinib or 0.5 μM HG-9-91-01
Method: RAW264.7 cells were cultured in DMEM containing 10% FBS, 2 mM glutamine and penicillin and streptomycin. […] Cells were treated for 1 h with or without inhibitors and then stimulated for up to 24 h with either 1 μg/ml Pam3CSK4 or 100 ng/ml LPS.
Cells were extracted in lysis buffer [50 mM Tris/HCl, pH 7.4, 1 mM EDTA, 1 mM EGTA, 50 mM NaF, 5 mM sodium pyrophosphate, 10 mM sodium β-glycerol 1-phosphate, 1 mM DTT, 1 mM sodium orthovanadate, 0.27 M sucrose, 1% (v/v) Triton X-100, 1 μg/ml aprotinin, 1 μg/ml leupeptin and 1 mM PMSF]. Cell extracts were clarified by centrifugation and protein concentrations were determined using the Bradford assay. To immunoprecipitate endogenous CRTC3, 1 mg of cell extract was incubated with 5 μg of anti-CRTC3 [13] covalently cross-linked on to Protein G–Sepharose. Immune complexes were washed three times with lysis buffer, eluted in 1% SDS and separated by SDS/PAGE. To detect proteins in cell lysates, 20 μg of protein extract was separated by SDS/PAGE. After transfer to PVDF membranes, proteins were detected by immunoblotting and visualized by treating the blots with ECL (GE Healthcare) followed by autoradiography.

[3] = tested on: Bone-marrow-derived macrophages; test: CREB-dependent gene transcription (qPCR); conditions: macrophages
Method: mRNA was extracted from cells using the MicroElute Total RNA kit following the manufacturers’ instructions (Omega Bio-Tek). cDNA was generated from 0.5 μg of total RNA using the iScript cDNA synthesis kit and quantified by quantitative real-time PCR (qPCR) using the SsoFast EvaGreen Supermix on a CFX384 real-time system (Bio-Rad Laboratories). The relative expression of each gene was calculated from CT values using the Pfaffl method and was normalized against the mRNA levels of housekeeping genes including 18S RNA and GAPDH. Results are reported relative to untreated control cells, which were set to 1.

| SMILES | IL-10 production [1] | TLR-stimulated phosphorylation of ERK1/2, JNK1/2, p38α/β MAPKs, MSK1/2, IKKα/β, TBK1 and their direct substrates [2] | CREB-dependent gene transcription and IL-10 production [3] |
| --- | --- | --- | --- |
| C#Cc1cccc(Nc2ncnc3cc(OCCOC)c(OCCOC)cc23)c1 [Erlotinib, erlotinib] | failed to elevate IL-10 production |  |  |
| COc1ccc(N(C(=O)Nc2c(C)cccc2C)c2cc(Nc3ccc(N4CCN(C)CC4)cc3)ncn2)c(OC)c1 [HG-9-91-01] |  | occurred normally |  |
| COc1cc2/c(=N/c3ccc(Br)cc3F)nc[nH]c2cc1OCC1CCN(C)CC1 [Vandetinib, vandetinib] | failed to elevate IL-10 production |  |  |
| CCN(CC)CCNC(=O)c1c(C)[nH]c(/C=C2\C(=O)Nc3ccc(F)cc32)c1C [Sunitinib, sunitinib] | failed to elevate IL-10 production |  |  |
| CS(=O)(=O)CCNCc1ccc(-c2ccc3ncnc(Nc4ccc(OCc5cccc(F)c5)c(Cl)c4)c3c2)o1 [Lapatinib, lapatinib] | failed to elevate IL-10 production |  |  |
| Cc1ccc(NC(=O)c2ccc(CN3CCN(C)CC3)cc2)cc1Nc1nccc(-c2cccnc2)n1 [Imatinib, imatinib] | failed to elevate IL-10 production |  | fail to induce CREB-dependent gene transcription and to elevate IL-10 production |
| COc1cc2ncnc(Nc3ccc(F)c(Cl)c3)c2cc1OCCCN1CCOCC1 [Gefitinib, gefitinib] | failed to elevate IL-10 production |  |  |
